Test [1] addresses Serotonin 3 (5-HT3) receptor (Rattus norvegicus) (UniProt P35563+Q9JJ16). Nature of the test: Inhibition of the von Bezold-Jarisch reflex bradycardia induced by an iv bolus injection of 5-HT. The test is classed as functional, organism-based.
Test [2] addresses T1, Serotonin 3 (5-HT3) receptor (Rattus norvegicus, UniProt P35563+Q9JJ16).
T1 sequence (P35563 whole entry): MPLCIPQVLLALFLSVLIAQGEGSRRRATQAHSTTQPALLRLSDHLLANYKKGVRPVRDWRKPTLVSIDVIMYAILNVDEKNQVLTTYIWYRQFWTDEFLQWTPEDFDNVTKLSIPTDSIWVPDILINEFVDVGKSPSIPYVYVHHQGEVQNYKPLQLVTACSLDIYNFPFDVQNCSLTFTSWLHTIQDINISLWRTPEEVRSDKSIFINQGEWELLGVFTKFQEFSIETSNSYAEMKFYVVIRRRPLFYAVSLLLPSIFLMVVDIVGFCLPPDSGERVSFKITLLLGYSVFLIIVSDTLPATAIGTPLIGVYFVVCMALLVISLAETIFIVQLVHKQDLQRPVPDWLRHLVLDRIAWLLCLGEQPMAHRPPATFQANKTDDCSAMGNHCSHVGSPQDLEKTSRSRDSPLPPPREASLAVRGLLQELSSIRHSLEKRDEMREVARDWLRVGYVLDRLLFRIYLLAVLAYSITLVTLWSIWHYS
T1 sequence (Q9JJ16 whole entry): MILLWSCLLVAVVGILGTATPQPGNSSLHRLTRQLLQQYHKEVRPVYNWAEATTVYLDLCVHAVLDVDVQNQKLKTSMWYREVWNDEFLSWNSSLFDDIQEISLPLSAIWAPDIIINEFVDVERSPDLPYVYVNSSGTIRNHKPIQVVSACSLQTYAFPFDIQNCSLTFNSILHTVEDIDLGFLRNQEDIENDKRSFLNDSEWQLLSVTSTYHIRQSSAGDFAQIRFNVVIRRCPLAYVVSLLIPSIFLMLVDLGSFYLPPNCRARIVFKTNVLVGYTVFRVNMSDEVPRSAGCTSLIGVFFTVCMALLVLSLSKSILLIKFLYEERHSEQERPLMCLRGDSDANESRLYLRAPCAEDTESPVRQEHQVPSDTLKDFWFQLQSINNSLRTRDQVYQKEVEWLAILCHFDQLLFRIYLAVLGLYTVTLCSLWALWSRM
Put plainly: Displacement of [3H]granisetron from 5-hydroxytryptamine 3 receptor of rat cortex. In general terms: In a radioligand displacement assay an active substance lowers the binding of a labelled ligand.

The structures appear in SMILES notation.

Compound `CC(C)N1CC2CC(NC(=O)N3CC(C)(C)c4ccccc43)CC(C1)N2C` (stereo not drawn) yielded an Inhibitory dose in test [1] of 0.43 µg/kg. Further, in test [2], the Ki was 1.26 nM.
In the case of `COc1cc(N)c(Cl)cc1C(=O)NC1CC2CN(C)CC(C1)N2C` (stereo not drawn), in test [1], the Inhibitory dose was 2.5 µg/kg.
As to `CCN1CC2CC(NC(=O)N3CC(C)(C)c4ccccc43)CC(C1)N2C` (stereo not drawn), the Inhibitory dose in test [1] worked out at 0.6 µg/kg. In addition, affinity in test [2] was put at a Ki of 2.51 nM.
Consider `CCCCN1CC2CC(NC(=O)c3nn(C)c4ccccc34)CC(C1)N2C` (stereo not drawn), for which the affinity in test [2], expressed as Ki, was 2.51 nM.
Same read-out and setting: to `CCCCN1CC2CC(NC(=O)N3CC(C)(C)c4ccccc43)CC(C1)N2C` (stereo not drawn) belongs 20 nM; to `CN1C2CNCC1CC(NC(=O)N1CC(C)(C)c3ccccc31)C2` (stereo not drawn), 1 nM; to `CCCN1CC2CC(NC(=O)c3nn(C)c4ccccc34)CC(C1)N2C` (stereo not drawn), 3.16 nM.
On to `CN1C2CC(NC(=O)N3CC(C)(C)c4ccccc43)CC1CN(Cc1ccccc1)C2` (stereo not drawn), for which the Inhibitory dose in test [1] came out at 1.8 µg/kg.
`CC(C)CN1CC2CC(NC(=O)c3nn(C)c4ccccc34)CC(C1)N2C` (stereo not drawn): in test [2], the Ki was 3.16 nM.
On to `CN1C2CC(NC(=O)c3nn(C)c4ccccc34)CC1CN(Cc1ccccc1)C2` (stereo not drawn), for which the Inhibitory dose in test [1] is 0.16 µg/kg. This compound also gave a Ki in test [2] of 0.501 nM.
As to `COc1cc(N)c(Cl)cc1C(=O)NC1CC2CN(Cc3ccccc3)CC(C1)N2C` (stereo not drawn), the Inhibitory dose in test [1] came out at 0.5 µg/kg.
On to `CC(C)N1CC2CC(NC(=O)c3nn(C)c4ccccc34)CC(C1)N2C` (stereo not drawn), for which, in test [1], the Inhibition turned out to be 0.65 µg/kg. Also, the Ki in test [2] is 0.794 nM.
Regarding `CN1C2CC(NC(=O)c3nn(C)c4ccccc34)CC1CN(c1ccccc1)C2` (stereo not drawn), in test [1], the Inhibitory dose came to 3 µg/kg.
In test [2], `CC(=O)N1CC2CC(NC(=O)N3CC(C)(C)c4ccccc43)CC(C1)N2C` (stereo not drawn) showed a Ki of 3.98 nM.
The same measure, in the same setting: to `CN1CC2CC(NC(=O)N3CC(C)(C)c4ccccc43)CC(C1)N2C` (stereo not drawn) belongs 1 nM.
On to `CCN1CC2CC(NC(=O)c3nn(C)c4ccccc34)CC(C1)N2C` (stereo not drawn), for which the Inhibitory dose in test [1] came to 0.8 µg/kg. In addition, the Ki in test [2] is 1.58 nM.
As for `CN1C2CC(NC(=O)N3CC(C)(C)c4ccccc43)CC1CN(C(=O)c1ccccc1)C2` (stereo not drawn), the Ki in test [2] is 10 nM.
Consider `CN1C2CCCC1CC(NC(=O)c1nn(C)c3ccccc13)C2` (stereo not drawn), for which, in test [1], the Inhibitory dose came to 0.7 µg/kg.

Usually Ki stands for a measure of affinity in units of concentration, obtained from inhibition or displacement.

The values above are taken from ChEMBL document CHEMBL1150460, “Synthesis and 5-HT3 receptor antagonist potency of novel (endo) 3,9-diazabicyclo[3.3.1]nonan-7-amino derivatives” (Bioorg Med Chem Lett, 1994).
